Experimental findings from patent US8410094B2, “Amide compounds, their pharmaceutical compositions, their preparation method and their uses” (Shanghai Institute of Materia Medica, Chinese Academy of …, priority 2008, dated 2013) are described below.

Where two headings read alike, the source gives them in different places.

One experiment deals with HIV-1 NL(AD8) virus. Kind of experiment: H4DA5 cell model of virus replication (β-galactosidase reporter). The experiment is classed as cell-based. The conditions noted are these: for IC50: read-out: IC50 (nM) H4DA5 cell model; for inhibitory activity EC50 level in H4DA5 cell model: stated in words. On the procedure:
2. Results of Activity Assay at Cellular Level • 2.1 H4DA5 Cell Model (The Operation was Performed Under P3 Experimental Conditions) • (1) H4DA5 cells: Hela cells expressing human CD4, CCR5 receptor and reporting gene Ltr-lacZ; • (2) Appropriate amounts of H4DA5 cells were plated in 96-well plate and cultured overnight; • (3) The compound to be tested and HIV-1 NL(AD8) virus were added; • (4) Incubation for 3 days (in cell incubator at 37° C.); • (5) Virus replication was determined using β-galactosidase test kit.

Another experiment concerns the target T1, CCR5 (Homo sapiens, UniProt P51681).
T1 construct: expressed in transfected cells
Kind of experiment: Inhibition of CCR5: [35S]GTPγS binding assays (filtration, SPA-WGA) and calcium influx assay, 10 nM RANTES, CHO-CCR5. The conditions noted are these: for IC50: inhibition of GTPγS binding induced by 10 nM RANTES, CHO-CCR5; for inhibition against CCR5 (class symbol in IC50 column): class by inhibition at 30 nM or 300 nM. Type of experiment: biochemical. On the procedure: CCR5 belongs to G-Protein-Coupled Receptor (GPCR) family. The developing technology of GPCR-based drugs have been well-developed, among them, the experimental techniques such as ligand-receptor binding assay, GTPγS binding assay and Ca^2+ flux assay have been widely used in drug-screening related to chemokine receptors. The inhibitory activities of the compounds according to the present invention against CCR5 are measured by three methods, i.e., [^35S]GTPγS filter binding assay, SPA-WGA-based [^35S]GTPγS binding assay and calcium influx assay. At the same time, the antiviral activities in cell of the compounds according to the present invention are evaluated by using two kinds HIV-1 subtypes: H4DA5 cell model and PBMC system virus replication model.
A. [^35S]GTPγS Binding Assay
After binding with an agonist, CCR5 experiences a conformation change such that CCR5 interacts with G protein so as to active the G protein. G protein is a tripolymer composed of α-subunit and βγ-subunit. Since the ability of α-subunit binding to GTP depends on the interaction of CCR5 with the agonist, the ability of an agonist for activating CCR5 can be reflected by determining the amount of GTP binding to α-subunit. In a GTPγS binding assay, a ^35S-labeled GTP analogue GTPγS, which can bind with an activated α-subunit without being hydrolyzed, is used to replace GTP in order for eliminating the defect that the amount of GTP binding to G protein can not exactly reflect the activation of CCR5 due to the hydrolysis of GTO by GTPase and for convenience of detection. So, α-subunit binds with GDP when CCR5 is not activated, and after the activation of CCR5, α-subunit binds with GTPγS such that GTPγS irreversible binds to α-subunit. Therefore, the amount of [^35S]-GTPγS binding to α-subunit could reflect the level of CCR5 activated by an agonist. The ability of the agonist for activating CCR5 will decrease when an antagonist is added.
Such experiment has been referred to as GTPγS filtration assay in which [^35S]-GTPγS bound with the free G protein could be separated by membrane filtration.
Alternatively, SPA (Scintillation Proximity Assay) technique can be used to detect the [^35S]-GTPγS bound to G protein, which is called SPA-WGA-based [35S]GTPγS binding assay. The principle of SPA technique is as follows. Sub-atomic particles released during the decay of radioactive atoms, for example β-ray (electron), can excite microspheres at a sufficiently close distance to emit light so as to be detected by a Scintillation Counter. In an aqueous solution, most of the energy of these rays is absorbed by the solvent, and the traveling distance of these rays is limited.
The activation of G protein by CCR5 is determined by the following experiments.
CHO (Chinese hamster ovary cell) permanent cell line expressing CCR5 (CHO-CCR5) (a cell line constructed by Shanghai Targetdrug Ltd.) was lysed with a lysis buffer (5 mM Tris-HCl, pH 7.5, 5 mM EDTA and 5 mM EGTA) and then centrifugated at 15,000×g for 10 min to obtain cell membrane. After the cell membrane was resuspended in a reaction buffer (5 mM Tris-HCl, pH 7.5, 5 mM MgCl2, 1 mM EGTA, 100 mM NaCl), the protein concentration was determined using Bioford Protein Assay Kit manufactured by Bio-Rad Laboratories Inc. Subsequently, GTPγS binding assay was performed in the reaction buffer, wherein the reaction system was 100 μL containing 10 μg membrane protein, 40 μM GDP and 0.5 nM [^35S]-GTPγS (1200 Ci/mmol). After the compound to be tested (the compound was first dissolved in DMSO and then diluted in gradient with the reaction buffer according to the specific situation, wherein the final concentration of DMSO was 1% (v/v) in the whole reaction system) was added and shaken to mix homogeneously, the reaction tube was incubated at 30° C. for 1 hour. After the reaction finished, the tube was placed on ice, and the reaction mixture was diluted with PBS to quench the reaction and filtered under reduced pressure with a GF/C filter membrane. […]

The next experiment deals with HIV-1 Ba-L virus. Put plainly: PBMC system of virus replication model (p24 antigen). The experiment is classed as cell-based. The conditions noted are these: for IC50: read-out: IC50 (nM) PBMC system of virus replication model. As for the experimental part: 2.2 PBMC System of Virus Replication Model (The Operation was Performed Under P3 Experimental Conditions) • (1) PBMC cells were separated from the blood from two people (using Ficoll gradient separation method); • (2) the PBMC cells were stimulated using PHA and incubated for 3 days in a cell incubator at 37° C. at a density of 2×10^6 cells/ml. • (3) PBMC cells were resuspended in a RF-10 medium (RF-10/IL2) containing 100 U/mL IL-2 (30 uL RF-10/IL2 medium containing 4 times of the final concentration of the compound to be tested and 40 uL RF-10/IL2 medium containing HIV-1 Ba-L virus (1400 pfu/well) were added in the plate (200,000 cells/50 uL/well). • (4) After incubated 24 hours, RF-10/IL2 medium containing 1 time of the final concentration of the compound to be test was added in each well. After infected for 4 days, 100 ul fresh RF-10/IL2 medium containing the compound to be tested at the final concentration to replace the original medium. After incubated for 2 days, the supernatant of each well was collected, and the content of p24 was determined. • (5) The content of P24 antigen in the supernatant of each well was measured by Vironostik p24 test kit to detect the virus replication.

[1] abbreviates: Human immunodeficiency virus 1, 72 h.

T1 sequence (P51681 whole entry): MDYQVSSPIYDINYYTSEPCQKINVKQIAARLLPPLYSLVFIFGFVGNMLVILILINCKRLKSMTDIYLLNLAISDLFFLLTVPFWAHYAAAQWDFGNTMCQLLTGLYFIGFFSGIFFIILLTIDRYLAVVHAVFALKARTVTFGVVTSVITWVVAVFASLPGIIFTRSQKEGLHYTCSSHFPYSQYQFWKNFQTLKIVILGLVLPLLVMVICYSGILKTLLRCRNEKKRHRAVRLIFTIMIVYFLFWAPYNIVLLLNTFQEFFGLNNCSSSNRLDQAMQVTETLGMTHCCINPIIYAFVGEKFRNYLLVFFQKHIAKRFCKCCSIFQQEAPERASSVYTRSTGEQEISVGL

Consider `CC(=O)N1CCC(C(=O)N(CCCN2[C@@H]3CC[C@H]2C[C@H](NC(=O)OCc2ccccc2)C3)c2ccc(C)c(Cl)c2)CC1` [Compound 8, 1-acetyl-N-(3-chloro-4-methylphenyl)-N-(3-(3-exo-benzyloxymethanamido-8-azabicyclo[3.2.1]oct-8-yl)propyl)-4-piperidinylcarboxamide], for which the IC50 amounted to 220 nM with HIV-1 NL(AD8) virus (setting [1]) and 18.3 nM on CCR5. In addition, in the experiment on HIV-1 NL(AD8) virus, the “inhibitory activity EC50 level in H4DA5 cell model” value amounted to 100 nM level.

`CC(=O)N1CCC(C(=O)N(CCCN2[C@@H]3CC[C@H]2C[C@H](NS(=O)(=O)c2ccc(C)cc2)C3)c2ccc(C)c(Cl)c2)CC1` [Compound 9b, 1-acetyl-N-(3-chloro-4-methylphenyl)-N-(3-(3-exo-p-tolylsulfonamido-8-azabicyclo[3.2.1]oct-8-yl)propyl)-4-piperidinylcarboxamide]: the IC50 came out at 1 nM in the experiment with HIV-1 NL(AD8) virus (setting [1]); 6 nM at CCR5; 0.42 nM in the experiment on HIV-1 Ba-L virus (Human immunodeficiency virus 1, BAL, PBMC). Also, the “inhibitory activity EC50 level in H4DA5 cell model” value in the experiment with HIV-1 NL(AD8) virus was “nM level”. Moreover, the “inhibitory activity EC50 level in PBMC system of virus replication model” value with HIV-1 Ba-L virus (stated in words) is on record as “nM level”.

Consider `Cc1ccc(S(=O)(=O)NC2CC3CCC(C2)N3CCCN(C(=O)C2CCCCC2)c2ccc(C)c(Cl)c2)cc1` (stereo not drawn) [Compound 15a, N-(3-chloro-4-methylphenyl)-N-(3-(3-exo-(4-tolylsulfonamido)-8-azabicyclo[3.2.1]oct-8-yl)propyl)cyclohexylcarboxamide], for which, on CCR5 (compound at 30 nM, 10 nM RANTES, read-out: inhibition against CCR5 @30 nM), the inhibition at 0.03 µM came to 45.2%. The inhibition at 0.3 µM on CCR5 (compound at 300 nM, 10 nM RANTES, read-out: inhibition against CCR5 @300 nM) stood at 100%.

On to `Cc1ccc(S(=O)(=O)N[C@@H]2C[C@H]3CC[C@@H](C2)N3CCCN(C(=O)C2CCN(S(C)(=O)=O)CC2)c2ccc(C)c(Cl)c2)cc1` [Compound 15b, N-(3-chloro-4-methylphenyl)-N-(3-(3-exo-(4-tolylsulfonamido)-8-azabicyclo[3.2.1]oct-8-yl)propyl)-1-(methylsulfonyl)-4-piperidinylcarboxamide], for which, at CCR5, the IC50 turned out to be 2.06 nM.

`Cc1ccc(S(=O)(=O)NC2CC3CCC(C2)N3CCCN(C(=O)OCc2ccccc2)c2ccc(C)c(Cl)c2)cc1` (stereo not drawn) [Compound 15c, 3-chloro-4-methylphenyl(3-(3-exo-(4-toluenesulfonamido)-8-azabicyclo[3.2.1]oct-8-yl)propyl)carbamic acid benzyl ester]: the “inhibition against CCR5 (class symbol in IC50 column)” value (“inhibition against CCR5” for short) on CCR5 is reported as “++ (the compound at 300 nM has an inhibition against CCR5 of more thant 50% at 300 nM)”.

Regarding `Cc1ccc(S(=O)(=O)NC2CC3CCC(C2)N3CCCN(C(=O)Nc2ccccc2)c2ccc(C)c(Cl)c2)cc1` (stereo not shown) [Compound 15d], the “inhibition against CCR5” value on CCR5 is listed as “++ (the compound at 300 nM has an inhibition against CCR5 of more thant 50% at 300 nM)”.

In the case of `Cc1ccc(S(=O)(=O)NC2CC3CCC(C2)N3CCCN(c2ccc(C)c(Cl)c2)S(=O)(=O)c2ccc(C)cc2)cc1` (stereo not drawn) [Compound 15e, N-(3-chloro-4-methylphenyl)-4-methyl-N-(3-(3-exo-(4-tolylsulfonamido)-8-azabicyclo[3.2.1]oct-8-yl)propyl)phenylsulfonamide], at CCR5, the “inhibition against CCR5” value is listed as “++ (the compound at 300 nM has an inhibition against CCR5 of more thant 50% at 300 nM)”.

In the case of Maraviroc [reference compound], the 50% inhibitory concentration (IC50) with HIV-1 NL(AD8) virus (Hela cells expressing human CD4, CCR5 and Ltr-lacZ, HIV-1 NL(AD8), 3 days) came out at 1.5 nM; in the experiment with HIV-1 Ba-L virus (PHA-stimulated PBMC, HIV-1 Ba-L, p24) it was 0.35 nM.
